Earlier results as cited in patent US20100316580A1, “ORAL CARE PRODUCT AND METHODS OF USE THEREOF” (Colgate-Palmolive Company, priority 2008, published 2010).

solubility in water: only slightly soluble
Compound: Oc1cc(Cl)ccc1Oc1ccc(Cl)cc1Cl [triclosan, 5-chloro-2-(2,4-dichlorophenoxyphenol]
